Measured values reported in paper PMC9226124, “Macrocycle-stabilization of its interaction with 14-3-3 increases plasma membrane localization and activity of CFTR” (Nature Communications, 2022).
Values joined by “and” are separate entries in the source; they are usually repeats but may differ in a detail not shown here. Identical values can stand only once. Each block holds one compound with its values, some of them ahead of it.

What was measured:
Assay type in all cases: binding
[1] = molecular target: T1, 14-3-3β/BAD peptide (Homo sapiens, UniProt P31946); test: FP assay of 14-3-3 partner protein peptide, BAD; settings: for FP signal: BAD peptide, CY007424 100 μM
T1 construct: His6 (cleaved yes); made in house
T1 sequence (P31946 1-246): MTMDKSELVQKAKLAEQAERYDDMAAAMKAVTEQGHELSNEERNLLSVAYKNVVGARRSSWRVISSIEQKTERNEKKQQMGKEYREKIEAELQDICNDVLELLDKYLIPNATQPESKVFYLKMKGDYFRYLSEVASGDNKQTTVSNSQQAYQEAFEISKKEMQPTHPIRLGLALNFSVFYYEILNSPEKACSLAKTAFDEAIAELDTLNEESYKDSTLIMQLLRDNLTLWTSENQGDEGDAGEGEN
Method: (§1) The FITC-labeled peptides were dissolved in FP buffer (10 mM HEPES pH 7.4, 150 mM NaCl, 0.1% Tween20, 1 mg/mL BSA) to a final concentration of 100 nM or 10 nM. For the dose-response assays, a 14-3-3β concentration of 10 μM was used while titrating the compounds in a two-times dilution series and, for the other assays, a dilution series of 14-3-3β was made with constant concentration of compound. The dilution series were made in 384 Corning Black Round Bottom well plates and their polarization was measured with a Tecan Infinite F500 plate reader (ex. = 485 nm, em. = 535 nm). The method of fitting of the curves was: “log(agonist) vs. response – Variable slope (four parameters)” from GraphPad Prism. The equation is Y = Bottom + (Top-Bottom)/(1 + 10^((LogEC50-X)*HillSlope)).
(§2) Supplementary Figure 2. Stabilization of the interaction between 14-3-3β and a collection of different 14-3-3 partner protein peptides by CY00742 4. […] Background polarization was subtracted from all values, n=3 technical replicates. Source data are provided as a Source Data file.
(§3) (1 picture or pasted object on this page, not shown here)

[2] = molecular target: T2, 14-3-3β/Foxo3 peptide (Homo sapiens, UniProt P31946); test: FP assay of 14-3-3 partner protein peptide, Foxo3; settings: CY007424 100 μM
T2 construct: His6 (cleaved yes); made in house
T2 sequence (P31946 1-246): T1 sequence (P31946 1-246)
Method: as §1, §2, §3

[3] = molecular target: T3, (Homo sapiens, UniProt P13569+P31946); test: FP assay, 14-3-3β titration at constant compound concentration (apparent KD); settings: FC 100 uM
T3 construct: His6 (cleaved yes); made in house; peptide synthetic
T3 sequence (P13569 747-774 limits assumed, one chain of several): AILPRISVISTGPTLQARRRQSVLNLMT

stabilization of the 14-3-3/BAD peptide complex ([1]; 100 µM compound): some stabilization of the complex
FP signal ([1]; 14-3-3β 2.44141e-7 M): 59.3333
FP signal ([1]; 14-3-3β 4.88281e-7 M): 76.3333 and 74.3333 and 80.3333
FP signal ([1]; 14-3-3β 9.76563e-7 M): 77.3333 and 83.3333 and 79.3333
FP signal ([1]; 14-3-3β 1.95313e-6 M): 81.3333 and 79.3333 and 82.3333
FP signal ([1]; 14-3-3β 3.90625e-6 M): 74.3333 and 75.3333
FP signal ([2]; 14-3-3β 3.8147e-9 M): 0.3333
FP signal ([2]; 14-3-3β 3.05176e-8 M): 4.333 and 3.333
FP signal ([2]; 14-3-3β 6.10352e-8 M): 7.333 and 6.333
FP signal ([2]; 14-3-3β 1.2207e-7 M): 14.3333 and 19.3333 and 15.3333
FP signal ([2]; 14-3-3β 2.44141e-7 M): 27.3333 and 29.3333 and 28.3333
FP signal ([2]; 14-3-3β 4.88281e-7 M): 45.3333 and 46.3333 and 43.3333
FP signal ([2]; 14-3-3β 9.76563e-7 M): 62.3333 and 55.3333
FP signal ([2]; 14-3-3β 1.95313e-6 M): 71.3333 and 70.3333
FP signal ([2]; 14-3-3β 3.90625e-6 M): 88.3333 and 86.3333 and 85.3333
FP signal ([2]; 14-3-3β 7.8125e-6 M): 104.333 and 105.333 and 107.333
FP signal ([2]; 14-3-3β 1.5625e-5 M): 129.333 and 126.333 and 125.333
FP signal ([2]; 14-3-3β 3.125e-5 M): 145.333 and 149.333 and 146.333
FP signal ([2]; 14-3-3β 6.25e-5 M): 167.333 and 166.333
FP signal ([2]; 14-3-3β 0.000125 M): 181.333 and 182.333 and 185.333
FP signal ([2]; 14-3-3β 0.00025 M): 195.333 and 193.333 and 196.333
Compound: N=C(N)NCCCC1NCc2ccccc2Sc2ccccc2CNC(=O)C(Cc2ccc(O)cc2)NC(=O)C(CCCN)NC1=O (centres unmarked) [CY007424]

Compound: C=CC(C)(C)OC[C@H]1O[C@H](O[C@@H]2C3=C([C@H](C)COC(C)=O)C[C@H](O)[C@]3(C)/C=C3/[C@@H](COC)CC[C@H]3[C@@H](C)[C@H]2O)[C@H](O)[C@@H](OC(C)=O)[C@@H]1O [FC-A, fusicoccin A, reference compound]
Polarization, Everage no 14-3-3 ([3]; average of no 14-3-3 wells): 22.00
Polarization, no 14-3-3 ([3]; no 14-3-3, peptide 100 nM, replicates, listed as FC): 23 and 21 and 22
